We go through 5 compounds from patent US12048695B2, “Immediate release pharmaceutical formulation of 4-[3-(4-cyclopropanecarbonyl-piperazine-1-carbonyl)-4-fluoro-benzyl]-2H-phthalazin-1-one” (KUDOS PHARMACEUTICALS LIMITED, priority 2008, dated 2024).

≈ marks a conversion by molar mass, not a printed value. Like-named read-outs stand apart in the source and are kept apart here.

A word on the Papp: it is the rate of passage across a membrane or cell layer, normalised by area and donor concentration. A lower Papp goes with slow passage. One may read the efflux ratio as a quotient of directional permeabilities that is used to spot active efflux. As usually defined, the Papp A→B is how fast a substance crosses the layer from the apical side. The low end stands for slow passage, the high end for fast passage. As usually defined, the Papp B→A is the apparent permeability from the basolateral to the apical side of a cell layer. What is called solubility is the dissolved amount per volume that the medium holds. For orientation: pKa means the pH at which an ionisable group is half protonated. Higher therefore signals a group that holds its proton tightly.

Series [1] is described as follows: In vitro dissolution of Compound 1 preparations (USP Apparatus I, TRIS buffer pH 7.2). The class given is physicochemical. As for the experimental part: Dissolution was performed according to the general procedure of the United States Pharmacopeia Apparatus I (Basket). An amount of material containing approximately 100 mg of Compound 1 was weighed accurately then transferred to a dissolution vessel containing 500 mL of TRIS buffer (0.05M tris(hydroxymethyl)aminomethane solution adjusted to pH 7.2 with hydrochloric acid) maintained at 37° C. and stirred at 100 rpm. […] Compound 1 concentration in the filtrate was determined by ultraviolet spectroscopy at a wavelength of 278 nm.

In series [2] the test system is Caco-2 monolayers. Nature of the series: Permeability across Caco-2 monolayers. Format: in vitro ADME. For orientation: Passage across Caco-2 layers is used to estimate intestinal permeability.
Series [3] in a line: Permeability across Caco-2 monolayers. As to conditions: human, Caco-2; for efflux ratio / Papp A→B / Papp B→A: marker compound, concentration not given. The class given is in vitro ADME.
For series [4], the system named is P-gp. Nature of the series: Permeability across Caco-2 monolayers. Format: in vitro ADME. As to conditions: human, Caco-2, 10 μM.
The nature of series [5]: Solubility in real and simulated gastrointestinal media. The class given is physicochemical. As to conditions: thermodynamic from solid; for solubility thermodynamic at 24 hr: read-out: Equilibrium solubility, 24 hr. The procedure:
The solubility of Compound 1 was also measured in real and simulated gastrointestinal media (Table 2).

A short description of series [6]: pKa. Format: physicochemical. As to conditions: phthalazinone moiety. An excerpt:
4-[3-(4-cyclopropanecarbonyl-piperazine-1-carbonyl)-4-fluoro-benzyl]-2H-phthalazin-1-one (Compound 1) is a weakly acidic compound with a pKa of about 12.5 (phthalazinone moiety). It is essentially neutral across the physiological pH range.

Series [7] can be described thus: Solubility in water and pH buffered solutions. Format: physicochemical. As for the experimental part:
The solubility of crystalline Form A of Compound 1 was measured in water and a range of pH buffered solutions representing the physiological pH range. The physical form of any undissolved (or precipitated) Compound 1 was not assessed by XRPD after solubility determination. The Form A crystalline form of Compound 1 is disclosed in WO2008/047082.

Consider `O=C(c1cc(Cc2n[nH]c(=O)c3ccccc23)ccc1F)N1CCN(C(=O)C2CC2)CC1` [Drug only], for which the “Dissolution (% Release)” value was 15% in series [1] (15 min); 28% in series [1] (30 min); 43% in series [1] (45 min); 51% in series [1] (60 min); 58% in series [1] (75 min); 62% in series [1] (90 min). Also, the “Dissolution (% Release)” value is 68% in series [1] (105 min) and 71% in series [1] (120 min).

On to `O=C(c1cc(Cc2n[nH]c(=O)c3ccccc23)ccc1F)N1CCN(C(=O)C2CC2)CC1` [Compound 1, 4-[3-(4-cyclopropanecarbonyl-piperazine-1-carbonyl)-4-fluoro-benzyl]-2H-phthalazin-1-one], for which, in series [2] (compared to the high permeability marker propranolol), the “permeability” value is given as “moderately permeable”. Moreover, the “human Peff” value in series [2] (equated from Caco-2 Papp) came out at 140 ×10⁻⁶ cm/s. Moreover, the “efflux by P-gp” value in series [2] (low concentrations (10 μM), inhibited by Elacridar) is on record as “propensity for efflux by P-gp”. The compound further returned a Papp at 10 μM in series [3] of 3.67 ×10⁻⁶ cm/s. For the same compound, the efflux ratio at 260 μM in series [3] (260 μM) was 2.3. In series [3] (260 μM, n = 3, ±S.D.), this compound returned a Papp A→B at 260 μM of 7.75 ± 0.88 ×10⁻⁶ cm/s and a Papp B→A at 260 μM of 17.8 ± 1.19 ×10⁻⁶ cm/s. Also, in series [3] (700 μM), the efflux ratio at 700 μM worked out at 1.8. Also, in series [3] (700 μM, n = 3, ±S.D.), the Papp A→B at 700 μM stood at 8.4 ± 0.41 ×10⁻⁶ cm/s and the apparent permeability from basolateral to apical (Papp B→A) at 700 μM amounted to 15.1 ± 1.42 ×10⁻⁶ cm/s. Moreover, the efflux ratio at 10 μM in series [4] stood at 6.5. In series [4] (n = 3, ±S.D.), this compound showed an apical-to-basolateral permeability (Papp A→B) at 10 μM of 3.67 ± 0.34 ×10⁻⁶ cm/s and a basolateral-to-apical permeability (Papp B→A) at 10 μM of 23.7 ± 2.84 ×10⁻⁶ cm/s. In series [5] (fed state simulated intestinal fluid, fessif, read-out: highest solubility), the solubility is 200 µg/mL (≈ 460 µM). This compound also yielded a solubility at 24 hr in series [5] (human, real and simulated gastrointestinal media, fassgf or other biorelevant) of 120 to 200 µg/mL (≈ 276 to 460 µM). The same compound came in with a pKa in series [6] of roughly 12.5. For the same compound, the solubility thermodynamic in series [7] (aqueous buffer, thermodynamic from solid, range of aqueous buffers (pH 1-9), read-out: aqueous equilibrium solubility) is roughly 100 µg/mL (≈ 230 µM).

Consider `C[C@H]1O[C@@H](O[C@H]2[C@@H](O)C[C@H](O[C@H]3[C@@H](O)C[C@H](O[C@H]4CC[C@@]5(C)[C@H](CC[C@@H]6[C@@H]5C[C@@H](O)[C@]5(C)[C@@H](C7=CC(=O)OC7)CC[C@]65O)C4)O[C@@H]3C)O[C@@H]2C)C[C@H](O)[C@@H]1O` [Digoxin, digoxin, reference compound], for which the efflux ratio in series [3] turned out to be 9.1. In series [3] (n = 3, ±S.D.), the Papp A→B was 1.34 ± 0.03 ×10⁻⁶ cm/s and the apparent permeability from basolateral to apical (Papp B→A) turned out to be 12.2 ± 1.37 ×10⁻⁶ cm/s.

For the compound `CC(C)NCC(O)COc1cccc2ccccc12` (stereo not drawn) [Propranolol, propranolol, reference compound], the efflux ratio in series [3] was 1.1. Moreover, in series [3] (n = 3, ±S.D.), the Papp A→B amounted to 20 ± 2.57 ×10⁻⁶ cm/s and the basolateral-to-apical permeability (Papp B→A) turned out to be 21.5 ± 0.33 ×10⁻⁶ cm/s.

For `O=C(c1cc(Cc2n[nH]c(=O)c3ccccc23)ccc1F)N1CCN(C(=O)C2CC2)CC1` [Compound 1 (Form A), 4-[3-(4-cyclopropanecarbonyl-piperazine-1-carbonyl)-4-fluoro-benzyl]-2H-phthalazin-1-one], the solubility thermodynamic at 24 hr is 130 µg/mL (≈ 299 µM) in series [5] (Fasted State Simulated Intestinal Fluid (FaSSIF), fassif); 200 µg/mL (≈ 460 µM) in series [5] (Fed State Simulated Intestinal Fluid (FeSSIF), fessif); 120 µg/mL (≈ 276 µM) in series [5] (Simulated Gastric Fluid (SGF), simulated gastric fluid); 150 µg/mL (≈ 345 µM) in series [5] (human, Human Gastric Fluid (HGF), plasma or biological fluid); 170 µg/mL (≈ 391 µM) in series [5] (human, Human Intestinal Fluid (HIF), plasma or biological fluid). Also, the solubility at 1 hr in series [7] (aqueous buffer, thermodynamic from solid, 0.1M NaOH, pH 12.5) is 650 µg/mL (≈ 1500 µM); in series [7] (aqueous buffer, thermodynamic from solid, pH 3 Citrate Buffer, pH 2.9) it was 124 µg/mL (≈ 285 µM); in series [7] (aqueous buffer, thermodynamic from solid, pH 6.8 Phosphate Buffer, pH 6.9), 111 µg/mL (≈ 255 µM); in series [7] (aqueous buffer, thermodynamic from solid, pH 9 Buffer, pH 8.9) it was 116 µg/mL (≈ 267 µM); in series [7] (simulated gastric fluid, thermodynamic from solid, 0.1M HCl, pH 1.2), 128 µg/mL (≈ 295 µM); in series [7] (thermodynamic from solid, Water, pH 5.6), 124 µg/mL (≈ 285 µM). For the same compound, the solubility at 24 hr in series [7] (aqueous buffer, thermodynamic from solid, 0.1M NaOH, 24 hr, pH 12.4) is 599 µg/mL (≈ 1380 µM); in series [7] (aqueous buffer, thermodynamic from solid, pH 3 Citrate Buffer, 24 hr, pH 2.9), 112 µg/mL (≈ 258 µM); in series [7] (aqueous buffer, thermodynamic from solid, pH 6.8 Phosphate Buffer, 24 hr, pH 6.9), 96 µg/mL (≈ 221 µM); in series [7] (simulated gastric fluid, thermodynamic from solid, 0.1M HCl, 24 hr, pH 1.2), 114 µg/mL (≈ 262 µM); in series [7] (thermodynamic from solid, Water, 24 hr, pH 6.0), 109 µg/mL (≈ 251 µM). Further, the solubility in series [7] (pH 9 Buffer, 24 hr, pH 8.8) amounted to 102 µg/mL (≈ 235 µM).
